Read-outs that look alike come from different tables or passages of the source.
Key:
[1] = system: CYP3A; conditions: in vitro, cited from earlier work
[2] = molecular target: T1, CYP3A4 (Homo sapiens, UniProt P08684); conditions: background statement; cited from earlier work
[3] = Oral bioavailability and tissue distribution after a single oral treatment; assay type: in vivo
[4] = system: S. pneumoniae ATCC 49619 (CLSI QC strain); test: Minimum inhibitory concentration (MIC), broth microdilution, QC strain; assay type: cell-based, Streptococcus pneumoniae; conditions: MIC in duplicates
Protocol: (§1) Protocols for Determining Minimum Inhibitory Concentration (MIC) of Test Compounds Against Streptococcus Pneumoniae Strains
(§2) The test strains are revived from frozen stock on blood agar plates and incubated at 35±2° C. for 18-20 hours in 5% CO2. Colonies are directly suspended from an overnight grown agar culture in CAMHB/saline and optical density adjusted to 0.5 McFarland turbidity standard (1-2×10^8 cfu/mL). Adjusted cultures are further diluted 1:100 using CAMHB such that after inoculation each well finally contains ˜5×10^5 cfu/mL. For broth dilution testing of Streptococcus species, CAMHB is supplemented with 2.5-5% v/v LHB. Colony counts of inoculum suspension is estimated by ten-fold serial dilutions and plating each dilution on agar plate. After incubation, the plates are observed for growth and microbial counts determined.
(§3) Compounds are weighed and dissolved in water/DMSO/other solvent to yield 1 mg/mL stock solution. Serial two-fold dilutions of the test compounds and reference antibiotics are prepared. 50 μL of the diluted drug solutions are dispensed in wells of microtiter trays (96 well).
(§4) To each of the wells of the microtiter tray, 50 μL of the diluted organism are inoculated to obtain a final inoculum density of ˜5×10^5 cfu/mL. Broth control, compound control and organism control wells are set up.
(§5) MIC testing are done in duplicates
(§6) MIC is defined as the lowest concentration of an antimicrobial agent that prevents visible growth of a microorganism in broth dilution susceptibility test.
(§7) After incubation period, growth of organism in the wells are detected by unaided eye facilitated by a viewing device. The amount of growth in the drug-containing wells are compared with the amount of growth in the organism-control wells.

[5] = system: S. pneumoniae AUCC483, macrolide resistant & penicillin sensitive; test: Minimum inhibitory concentration (MIC), broth microdilution, AUCC483; assay type: cell-based, Streptococcus pneumoniae
Protocol: as §1, §2, §3, §4, §5, §6, §7

[6] = system: S. pneumoniae AUCC489, macrolide & penicillin resistant; test: Minimum inhibitory concentration (MIC), broth microdilution, AUCC489; assay type: cell-based, Streptococcus pneumoniae
Protocol: as §1, §2, §3, §4, §5, §6, §7

[7] = system: S. pneumoniae AUCC479, macrolide & penicillin sensitive; test: Minimum inhibitory concentration (MIC), broth microdilution, AUCC479; assay type: cell-based, Streptococcus pneumoniae
Protocol: as §1, §2, §3, §4, §5, §6, §7

[8] = system: macrolide-resistant S. pneumoniae strains; test: Mouse lung infection models; assay type: in vivo
[9] = system: S. pneumoniae AUCC488, macrolide & penicillin resistant; test: Minimum inhibitory concentration (MIC), broth microdilution, AUCC488; assay type: cell-based, Streptococcus pneumoniae
Protocol: as §1, §2, §3, §4, §5, §6, §7

[10] = molecular target: T1, CYP3A4; test: Cytochrome P4503A4 inhibition assay, human liver microsomes, LC-MS/MS probe substrate method; conditions: for IC50: human liver microsomes 0.1 mg/mL, 10 min; for CYP3A4 inhibition in comparison with solithromycin and ketoconazole: summary of Table 1
Protocol: Cytochrome P4503A4 Inhibition Assay for Determining IC50
The potential of the compound to inhibit CYP 3A4 was tested by the LC-MS/MS based probe substrate method using human liver microsomes. Midazolam or testosterone, which are metabolized to hydroxymidazolam or hydroxytestosterone by CYP 3A4, were the probe substrates used. […] NADPH was added as the cofactor. […] After incubation for ten minutes, the amount of 1-hydroxymidazolam or 6β-hydroxyltestosterone formed was determined by LC-MS/MS method as a measure of enzyme activity. Percent inhibition of enzyme activity was calculated based on the amount of metabolites (1-hydroxymidazolam or 6β-hydroxyltestosterone) formed for each sample relative to the basal control and plotted in a curve versus the compound concentration to obtain the IC50.

[11] = read-out: IC50 CYP3A4 (midazolam), 5 μM midazolam
[12] = read-out: IC50 CYP3A4 (testosterone), 50 μM testosterone

T1 sequence (P08684 whole entry): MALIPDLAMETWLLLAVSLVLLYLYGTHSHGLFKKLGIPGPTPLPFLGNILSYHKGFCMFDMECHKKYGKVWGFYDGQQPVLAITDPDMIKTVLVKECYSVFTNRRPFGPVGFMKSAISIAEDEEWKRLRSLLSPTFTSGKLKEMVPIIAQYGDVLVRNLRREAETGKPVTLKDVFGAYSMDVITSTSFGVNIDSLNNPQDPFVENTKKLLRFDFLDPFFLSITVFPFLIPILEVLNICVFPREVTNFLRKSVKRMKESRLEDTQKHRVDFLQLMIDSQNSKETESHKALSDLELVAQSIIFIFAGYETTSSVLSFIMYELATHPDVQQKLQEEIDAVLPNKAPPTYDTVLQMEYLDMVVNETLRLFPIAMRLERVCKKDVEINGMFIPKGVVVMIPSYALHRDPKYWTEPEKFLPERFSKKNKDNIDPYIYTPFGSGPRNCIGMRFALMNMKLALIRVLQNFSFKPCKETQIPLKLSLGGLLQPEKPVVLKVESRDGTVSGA

Molecule	IC50 ([1]; Katz et al / FDA briefing document, read-out: IC50 of CYP3A-dependent nifedipine oxidation) [nM]	IC50 of CYP3A-dependent nifedipine oxidation ([1]; same value in ng/mL) [ng/mL]	inhibition of CYP3A4 [2]	time drug level in the lungs remained elevated ([3]; lungs, after a single oral treatment)	oral bioavailability ([3]; oral)	tissue distribution ([3]; oral)	MIC Strep. Pneumoniae ATCC49619 QC strain [4] [µg/mL]	MIC Strep. Pneumoniae AUCC 483 penS, macR cMLS [5] [µg/mL]	MIC Strep. Pneumoniae AUCC 489 penR, macR cMLS [6] [µg/mL]	MIC Strep. Pneumoniae AUCC 479 penS, macS [7] [µg/mL]	efficacy in mouse lung infection models [8]	MIC Strep. Pneumoniae AUCC 488 penR, macR M or iMLS [9] [µg/mL]	IC50 [10, 11] [µM]	CYP3A4 inhibition in comparison with solithromycin and ketoconazole [10]	IC50 [10, 12] [µM]
CC[C@H]1OC(=O)[C@H](C)C(=O)[C@H](C)[C@@H](O[C@@H]2O[C@H](C)C[C@H](N(C)C)[C@H]2O)[C@](C)(OC/C=C/c2cnc3ccccc3c2)C[C@@H](C)C(=O)[C@H](C)[C@H]2NC(=O)O[C@@]21C [cethromycin]	630	482.5	strong inhibition												
(3aS,4R,7R,9R,10R,11R,13R,15R,15aR)-10-{[(2S,3R,4S,6R)-4-(dimethylamino)3-hydroxy-6-methyloxan-2-yl]oxy}-1-[3-(dimethylamino)propyl]-4-ethyl-3a,7,9,11,13,15-hexamethyl-11-{[(2E)-3-(quinolin-3-yl)prop-2-en-1-yl]oxy}tetradecahydro-1H-oxacyclotetradeca[4,3-d][1,3]oxazole-2,6,8,14-tetrone [Compound 13B]				at least 8 hours	excellent	excellent	0.015 to 0.03	0.12 to 0.25	0.12 to 0.25	0.008 to 0.015	demonstrated efficacy	0.12 to 0.25	6.4	lower IC50 inhibition of CYP3A4 inhibition	
(3aS,4R,7R,9R,10R,11R,13R,15R,15aR)-10-{[(2S,3R,4S,6R)-4-(dimethylamino)-3-hydroxy-6-methyloxan-2-yl]oxy}-4-ethyl-1-{2-[ethyl(methyl)amino]ethyl}-3a,7,9,11,13,15-hexamethyl-11-{[(2E)-3-(quinolin-3-yl)prop-2-en-1-yl]oxy}-tetradecahydro-1H-oxacyclotetradeca[4,3-d][1,3]oxazole-2,6,8,14-tetrone [Compound 13G]							0.12 to 0.25	1 to 2	0.5 to 1	0.03 to 0.06		0.5 to 1	8.8	lower IC50 inhibition of CYP3A4 inhibition	
(3aS,4R,7R,9R,10R,11R,13R,15R,15aR)-10-{[(2S,3R,4S,6R)-4-(dimethylamino)-3-hydroxy-6-methyloxan-2-yl]oxy}-4-ethyl-1-{[(2R)-1-ethylpyrrolidin-2-yl]methyl}-3a,7,9,11,13,15-hexamethyl-11-{[(2E)-3-(quinolin-3-yl)prop-2-en-1-yl]oxy}-tetradecahydro-1H-oxacyclotetradeca[4,3-d][1,3]oxazole-2,6,8,14-tetrone [Compound 13D]							0.03 to 0.06	0.25 to 0.5	0.12 to 0.25	0.015 to 0.03		0.25 to 0.5	2.9	lower IC50 inhibition of CYP3A4 inhibition	
(3aS,4R,7R,9R,10R,11R,13R,15R,15aR)-10-{[(2S,3R,4S,6R)-4-(dimethylamino)-3-hydroxy-6-methyloxan-2-yl]oxy}-4-ethyl-1-{[(2S)-1-ethylpyrrolidin-2-yl]methyl}-3a,7,9,11,13,15-hexamethyl-11-{[(2E)-3-(quinolin-3-yl)prop-2-en-1-yl]oxy}-tetradecahydro-1H-oxacyclotetradeca[4,3-d][1,3]oxazole-2,6,8,14-tetrone [Compound 13C]							0.06 to 0.12	0.5 to 1	0.5 to 1	0.03		0.5	1.8	lower IC50 inhibition of CYP3A4 inhibition	
(3aS,4R,7R,9R,10R,11R,13R,15R,15aR)-10-{[(2S,3R,4S,6R)-4-(dimethylamino)-3-hydroxy-6-methyloxan-2-yl]oxy}-4-ethyl-3a,7,9,11,13,15-hexamethyl-1-[2-(4-methylpiperazin-1-yl)ethyl]-11-{[(2E)-3-(quinolin-3-yl)prop-2-en-1-yl]oxy}-tetradecahydro-1H-oxacyclotetradeca[4,3-d][1,3]oxazole-2,6,8,14-tetrone [Compound 13K]							0.06 to 0.12	0.5 to 1	0.5 to 1	0.03 to 0.06		1	6.5	lower IC50 inhibition of CYP3A4 inhibition	
(3aS,4R,7R,9R,10R,11R,13R,15R,15aR)-10-{[(2S,3R,4S,6R)-4-(dimethylamino)-3-hydroxy-6-methyloxan-2-yl]oxy}-4-ethyl-3a,7,9,11,13,15-hexamethyl-1-[2-(pyrrolidin-1-yl)ethyl]-11-{[(2E)-3-(quinolin-3-yl)prop-2-en-1-yl]oxy}-tetradecahydro-1H-oxacyclotetradeca[4,3-d][1,3]oxazole-2,6,8,14-tetrone [Compound 13I]							0.03 to 0.06	0.25 to 1	0.25 to 1	0.015 to 0.03		0.25 to 0.5	2.1	lower IC50 inhibition of CYP3A4 inhibition	
(3aS,4R,7R,9R,10R,11R,13R,15R,15aR)-10-{[(2S,3R,4S,6R)-4-(dimethylamino)-3-hydroxy-6-methyloxan-2-yl]oxy}-4-ethyl-3a,7,9,11,13,15-hexamethyl-1-[3-(morpholin-4-yl)propyl]-11-{[(2E)-3-(quinolin-3-yl)prop-2-en-1-yl]oxy}-tetradecahydro-1H-oxacyclotetradeca[4,3-d][1,3]oxazole-2,6,8,14-tetrone [Compound 13J]							0.06 to 0.12	0.5 to 2	1 to 2.0	0.03 to 0.06		1	5.9	lower IC50 inhibition of CYP3A4 inhibition	
(3aS,4R,7R,9R,10R,11R,13R,15R,15aR)-10-{[(2S,3R,4S,6R)-4-(dimethylamino)-3-hydroxy-6-methyloxan-2-yl]oxy}-4-ethyl-3a,7,9,11,13,15-hexamethyl-1-{2-[(2R)-1-methylpyrrolidin-2-yl]ethyl}-11-{[(2E)-3-(quinolin-3-yl)prop-2-en-1-yl]oxy}-tetradecahydro-1H-oxacyclotetradeca[4,3-d][1,3]oxazole-2,6,8,14-tetrone [Compound 13P]							0.03 to 0.06	0.06 to 0.12	0.12 to 0.25	0.015 to 0.03		0.5 to 1		lower IC50 inhibition of CYP3A4 inhibition	6.3
(3aS,4R,7R,9R,10R,11R,13R,15R,15aR)-10-{[(2S,3R,4S,6R)-4-(dimethylamino)-3-hydroxy-6-methyloxan-2-yl]oxy}-4-ethyl-3a,7,9,11,13,15-hexamethyl-1-{2-[(2S)-1-methylpyrrolidin-2-yl]ethyl}-11-{[(2E)-3-(quinolin-3-yl)prop-2-en-1-yl]oxy}-tetradecahydro-1H-oxacyclotetradeca[4,3-d][1,3]oxazole-2,6,8,14-tetrone [Compound 13Q]							0.03 to 0.06	0.12 to 0.25	0.12 to 0.25	0.015 to 0.03		0.5 to 1		lower IC50 inhibition of CYP3A4 inhibition	4.8
